# Source: publication PMC8356907 (Current analytical chemistry, 2021)
# Square brackets hold non-standard residues; d marks the D form.
# T1: recombinant human caspase 3 (Homo sapiens, UniProt P42574)
# T1 sequence (P42574 29-175 limits assumed): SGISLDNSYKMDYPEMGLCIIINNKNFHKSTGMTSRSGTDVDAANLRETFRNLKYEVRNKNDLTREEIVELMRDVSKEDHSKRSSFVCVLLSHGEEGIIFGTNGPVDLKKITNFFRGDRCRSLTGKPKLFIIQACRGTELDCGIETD
# T1 sequence (P42574 176-277 limits assumed): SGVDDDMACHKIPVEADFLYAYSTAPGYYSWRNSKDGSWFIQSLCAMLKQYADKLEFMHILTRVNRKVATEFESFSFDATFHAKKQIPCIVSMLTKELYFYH
# T2: human integrin αvβ3 purified protein (human), P06756
# T2 chain 1: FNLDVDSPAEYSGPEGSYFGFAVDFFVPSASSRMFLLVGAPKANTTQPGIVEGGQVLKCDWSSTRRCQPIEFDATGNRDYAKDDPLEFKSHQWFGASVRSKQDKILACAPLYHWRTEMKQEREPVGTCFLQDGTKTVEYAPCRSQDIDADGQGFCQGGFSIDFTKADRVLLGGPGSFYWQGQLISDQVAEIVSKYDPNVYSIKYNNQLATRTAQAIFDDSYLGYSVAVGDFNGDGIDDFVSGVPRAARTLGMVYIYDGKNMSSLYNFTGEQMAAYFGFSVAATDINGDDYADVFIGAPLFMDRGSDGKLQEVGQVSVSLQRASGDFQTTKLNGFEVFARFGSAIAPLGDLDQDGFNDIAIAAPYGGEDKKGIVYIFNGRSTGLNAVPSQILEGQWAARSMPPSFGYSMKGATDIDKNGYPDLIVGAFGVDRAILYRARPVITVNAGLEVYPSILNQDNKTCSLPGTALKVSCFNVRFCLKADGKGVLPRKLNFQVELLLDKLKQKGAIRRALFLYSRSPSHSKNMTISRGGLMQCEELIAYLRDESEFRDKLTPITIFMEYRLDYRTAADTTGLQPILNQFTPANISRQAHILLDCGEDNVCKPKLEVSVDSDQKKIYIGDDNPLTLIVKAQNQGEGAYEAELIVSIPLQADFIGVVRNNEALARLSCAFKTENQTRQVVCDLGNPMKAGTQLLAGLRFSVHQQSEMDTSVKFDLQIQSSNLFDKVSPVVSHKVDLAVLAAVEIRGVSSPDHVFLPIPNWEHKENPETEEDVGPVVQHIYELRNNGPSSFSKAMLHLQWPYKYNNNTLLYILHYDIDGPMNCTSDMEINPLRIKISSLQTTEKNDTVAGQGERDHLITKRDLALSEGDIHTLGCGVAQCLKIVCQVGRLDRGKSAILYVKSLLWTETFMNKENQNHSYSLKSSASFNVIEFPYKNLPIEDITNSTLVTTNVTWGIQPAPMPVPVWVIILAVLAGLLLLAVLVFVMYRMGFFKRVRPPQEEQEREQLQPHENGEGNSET
# T2 chain 2: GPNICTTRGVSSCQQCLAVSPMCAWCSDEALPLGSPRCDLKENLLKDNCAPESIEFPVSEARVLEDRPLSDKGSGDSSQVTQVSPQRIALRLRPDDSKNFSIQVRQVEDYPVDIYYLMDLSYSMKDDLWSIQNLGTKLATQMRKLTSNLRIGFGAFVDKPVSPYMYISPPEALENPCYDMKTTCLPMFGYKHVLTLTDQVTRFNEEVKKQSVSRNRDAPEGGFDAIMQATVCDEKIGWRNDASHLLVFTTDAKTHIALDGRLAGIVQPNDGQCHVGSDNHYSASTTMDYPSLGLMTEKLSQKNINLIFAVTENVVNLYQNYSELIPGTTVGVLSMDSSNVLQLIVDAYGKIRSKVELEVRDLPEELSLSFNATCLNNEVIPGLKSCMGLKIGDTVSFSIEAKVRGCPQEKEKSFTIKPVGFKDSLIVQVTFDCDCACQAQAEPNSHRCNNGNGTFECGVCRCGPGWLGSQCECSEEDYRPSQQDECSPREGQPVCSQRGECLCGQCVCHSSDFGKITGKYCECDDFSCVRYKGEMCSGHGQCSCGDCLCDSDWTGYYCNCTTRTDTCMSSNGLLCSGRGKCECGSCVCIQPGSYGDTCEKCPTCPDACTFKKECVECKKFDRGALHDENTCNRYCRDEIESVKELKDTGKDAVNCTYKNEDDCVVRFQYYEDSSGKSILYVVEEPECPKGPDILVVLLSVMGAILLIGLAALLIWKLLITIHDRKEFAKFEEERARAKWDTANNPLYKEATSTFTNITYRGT
# Assays:
# [1] = biological target: T1, recombinant human caspase 3; conditions: cited from earlier work; for kcat: standard fluorogenic substrates; for Km: standard substrates
# [2] = biological target: human integrin αvβ3 purified protein (Homo sapiens, UniProt P05106+P06756); assay: Solid-phase RGD receptor-binding assay
# A549 cells = assay: Live cell NIR fluorescence microscopy; type: cell-based, human; conditions: 100 μM inhibitor, paclitaxel-treated A549 cells, 4 h
# [3] = biological target: T2, human integrin αvβ3 purified protein …; assay: radioligand binding; conditions: remark: other sources report otherwise
# [4] = biological target: human integrin αvβ3 purified protein (human, UniProt P06756 31-1048; P05106 27-788); assay: radioligand binding
molecule,measurement,setting,value
Ac-DEVD-AMC,kcat,[1],0.75 s⁻¹
same,Km,[1],9.7 µM
Ac-DEVD-pNA,kcat,[1],2.4 s⁻¹
same,Km,[1],11 µM
Cypate-c(RGDfK) [LS167],Ki,"[2]; read-out: Ki (nM ± s.d.), corrected Ki, modified Cheng-Prusoff equation, 125I-c(RGDyK) tracer",1.62 ± 0.491 nM
Z-Asp(Ome)-Glu(Ome)-Val-Asp(OMe)-FMK,effect of caspase-3 inhibitor on LS422 fluorescence activation,A549 cells,inability to activate the LS422 fluorescence
cypate-octreotate,decrease in the binding affinity,[2]; non-RGD peptide control,> 100 fold
"cyclo(RGD[dF]K) (also: cypate label, position not given here) [LS167 (Cypate-c(RGDfK))]",Ki,[3],1.62 nM
"cyclo(RGD[dY]K) (also: 125I label, site not given here) [125I-c(RGDyK)]",Kd,[4],0.4 nM
